Experimental data: patent US11129805B2, “Dual ACE C-domain/NEP inhibitors” (ANGIODESIGN (UK) LIMITED, priority 2016, dated 2021)
Where two headings read alike, the source gives them in different places.

How the values were obtained:
[1] = system: 10% human plasma supplemented with rhNEP (ACE and NEP activity); test: Metabolism of a bradykinin 1-9 spike in human plasma (LC-MS/MS); type: biochemical; conditions: for initial bradykinin 1-9 spike remaining/recovered following the incubation period: 50 ng/ml BK 1-9 spike, 10% human plasma + rhNEP 200 pg/ml, 37° C.
Procedure: All samples were spiked with bradykinin 1-9 (BK1-9) at a concentration of 50 ng/ml followed by an incubation period at 37° C. Recombinant human neutral endopeptidase (rhNEP) was added to all samples at a concentration of 200 pg/ml.
The concentrations of BK 1-9 are relative to the control that was plasma spiked with BK 1-9 following the incubation period (100% spike control).
Effects on Bradykinin Peptides. The metabolism of a spike of bradykinin 1-9 (50 ng/ml) in 10% human plasma supplemented with 200 pg/ml rhNEP (R&D) in vitro, followed by LC-MS/MS-based quantification of the bradykinin metabolites bradykinin 1-9, 1-8, 1-7, 1-5, and 2-9 was examined. Briefly, samples where stabilized and spiked with 200 pg/ml of stable-isotope-labelled internal standards for bradykinin 1-9, 1-8, 1-7, 1-5, and 2-9. Following C18-based solid-phase-extraction, samples were subjected to LC-MS/MS analysis using a reversed-phase analytical column (Acquity UPLC® C18, Waters) operating in line with a XEVO TQ-S triple quadrupole mass spectrometer (Waters) in MRM mode.

[2] = system: hypertensive animal (the high-renin mouse model); conditions: in vivo; cited from earlier work
[3] = cited from earlier work
[4] = cited from earlier work; for angioedema frequency: 5,770 patients with heart failure
aminopeptidase P = conditions: cited from earlier work
[5] = system: human plasma supplemented with recombinant human NEP (ACE and NEP activity); test: RAS equilibrium analysis of angiotensin peptides in human plasma ex vivo (LC-MS/MS); conditions: human plasma + rhNEP 200 pg/ml
Procedure: Recombinant human neutral endopeptidase (rhNEP) was added to all samples at a concentration of 200 pg/ml.
Equilibrium angiotensin peptide levels were measured in plasma samples after incubating Li-Heparin samples supplemented with recombinant human NEP (rhNEP) (R&D, 200 pg/ml) at controlled pH (7.4) for a period of 30 min at 37° C. in the presence and absence of indicated compounds and enzymes. Following equilibration, samples were stabilized and spiked with stable-isotope-labelled internal standards for each angiotensin metabolite, Ang I (Ang 1-10), Ang II (Ang 1-8), Ang 1-7, Ang 1-5, Ang 2-8, Ang 3-8, Ang 2-10, Ang 2-7, Ang 1-9, and Ang 3-7, at a concentration of 200 pg/ml. Following C18-based solid-phase-extraction, samples were subjected to LC-MS/MS analysis using a reversed-phase analytical column (Acquity UPLC® C18, Waters) operating in line with a XEVO TQ-S triple quadrupole mass spectrometer (Waters) in MRM mode.

[6] = 573 patients with heart failure; cited from earlier work
[7] = patients with hypertension, cited from earlier work
ACE C-domain = ACE C-domain (Homo sapiens, UniProt P12821); conditions: cited from earlier work
Chain of ACE C-domain (P12821 643-1222 limits assumed): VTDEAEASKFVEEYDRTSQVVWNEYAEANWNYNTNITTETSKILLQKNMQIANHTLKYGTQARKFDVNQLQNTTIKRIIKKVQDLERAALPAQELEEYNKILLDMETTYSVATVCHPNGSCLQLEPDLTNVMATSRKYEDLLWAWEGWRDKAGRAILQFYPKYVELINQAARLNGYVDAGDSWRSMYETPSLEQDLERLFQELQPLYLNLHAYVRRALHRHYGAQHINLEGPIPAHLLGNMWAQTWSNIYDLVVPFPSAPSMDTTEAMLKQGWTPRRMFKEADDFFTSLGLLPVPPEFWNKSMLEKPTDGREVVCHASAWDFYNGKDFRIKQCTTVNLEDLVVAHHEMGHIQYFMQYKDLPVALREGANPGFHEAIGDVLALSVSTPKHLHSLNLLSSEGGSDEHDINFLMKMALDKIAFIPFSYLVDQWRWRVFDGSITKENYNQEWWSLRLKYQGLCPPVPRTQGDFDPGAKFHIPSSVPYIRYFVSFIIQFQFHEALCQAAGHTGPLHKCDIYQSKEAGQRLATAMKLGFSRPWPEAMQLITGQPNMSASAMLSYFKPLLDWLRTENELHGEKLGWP

## NCCCC[C@H](N[C@@H](CCc1ccccc1)C(=O)O)C(=O)N1CCC[C@H]1C(=O)O [lisinopril]
[1]
  initial bradykinin 1-9 spike remaining/recovered following the incubation period: 57-70%
[2]
  plasma BK levels: substantial increases in plasma BK levels

## O=C(N[C@H]1CCS[C@H]2CCC[C@@H](C(=O)O)N2C1=O)[C@@H](S)Cc1ccccc1 [omapatrilat]
[1]
  initial bradykinin 1-9 spike remaining/recovered following the incubation period: 74-85%
[1]; versus solvent control plasma
  metabolism of bradykinin: decreased metabolism of bradykinin
[3]; 25,302 hypertensive subjects
  incidence of angioedema: 2.17%
[3]; African American patients
  incidence of angioedema: 5.53%
[3]; comparison with enalapril
  blood pressure reduction: superior to enalapril in reducing blood pressure
[4]
  angioedema frequency: 0.8%
[4]; comparison with enalapril
  primary endpoint (all-cause mortality or hospitalization for heart failure): failed to show superiority
Aminopeptidase P
  inhibition of aminopeptidase P: inhibits
[5]; pH 7.4, 30 min at 37° C.
  inhibition of equilibrium Ang 1-8 levels (Ang II): 93.1%
[5]; sentence follows the rhACE2 discussion
  levels of Ang 1-7: undetectable
[6]
  benefit versus lisinopril: trend toward greater benefit
[7]; versus lisinopril
  reduction in arterial pressure: greater reductions in arterial pressure
[7]
  excretion of ANP: increased the excretion of ANP

## CCOC(=O)[C@H](CCc1ccccc1)N[C@@H](C)C(=O)N1CCC[C@H]1C(=O)O [enalapril]
[4]
  angioedema frequency: 0.5%

## NCCCC[C@H](N[C@@H](CCc1ccccc1)C(=O)O)C(=O)N[C@@H](Cc1c[nH]c2ccccc12)C(=O)O [Lis-Trp]
[2]
  Ang II formation: suppression of Ang Il formation
  blood pressure: reduction in blood pressure equivalent to that achieved with the conventional ACE inhibitor lisinopril
  plasma BK levels: leaving BK levels unchanged

## O=C(N[C@@H](Cc1ccccc1)P(=O)(O)C1CCCC1C(=O)N[C@@H](Cc1c[nH]c2ccccc12)C(=O)O)OCc1ccccc1 (some centres unmarked) [RXP A380]
ACE C-domain
  C-domain selectivity: ~3,000 fold
